In patent US7531547B2, “Diaminopyrimidines as P2X3 and P2X2/3 modulators” (Roche Palo Alto LLC, priority 2005, dated 2009):

Legend:
rat P2X3 receptor = target: T1, rat P2X3 receptor (Rattus norvegicus, UniProt P49654); test: P2X3 FLIPR (Fluorometric Imaging Plate Reader) assay, CHO-K1 cells; assay type: cell-based; settings: CHO-K1 cells transfected with rat P2X3; agonist α,β-meATP 1 μM; Fluo-3 calcium fluorescence; read-out: pIC50 for the P2X3 receptor (converted)
T1 construct: expressed in transfected cells; host or cells: CHO-K1
T1 sequence (P49654 1-397): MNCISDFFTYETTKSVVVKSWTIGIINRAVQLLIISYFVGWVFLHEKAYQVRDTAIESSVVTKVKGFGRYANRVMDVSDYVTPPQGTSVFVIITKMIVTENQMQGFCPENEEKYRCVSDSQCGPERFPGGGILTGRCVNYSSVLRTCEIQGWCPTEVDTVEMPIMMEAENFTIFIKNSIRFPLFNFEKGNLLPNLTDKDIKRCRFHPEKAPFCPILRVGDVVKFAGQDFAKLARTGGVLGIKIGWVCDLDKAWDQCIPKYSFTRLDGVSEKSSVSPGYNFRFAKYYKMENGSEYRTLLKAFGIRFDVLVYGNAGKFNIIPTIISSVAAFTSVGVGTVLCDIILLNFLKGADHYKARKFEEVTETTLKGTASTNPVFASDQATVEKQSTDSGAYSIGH
Protocol: (§1) CHO-K1 cells were transfected with cloned rat P2X3 or human P2X2/3 receptor subunits and passaged in flasks. 18-24 hours before the FLIPR experiment, cells were released from their flasks, centrifuged, and resuspended in nutrient medium at 2.5×10^5 cells/ml. The cells were aliquoted into black-walled 96-well plates at a density of 50,000 cells/well and incubated overnight in 5% CO2 at 37° C. On the day of the experiment, cells were washed in FLIPR buffer (calcium- and magnesium-free Hank's balanced salt solution, 10 mM HEPES, 2 mM CaCl2, 2.5 mM probenecid; FB). Each well received 100 μl FB and 100 μl of the fluorescent dye Fluo-3 AM [2 μM final conc.]. […]
(§2) Test compounds (dissolved in DMSO at 10 mM and serially diluted with FB) or vehicle were added to each well (25 μl of a 4× solution) and allowed to equilibrate for 20 minutes at room temperature. The plates were then placed in the FLIPR and a baseline fluorescence measurement (excitation at 488 nm and emission at 510-570 nm) was obtained for 10 seconds before a 100 μl/well agonist or vehicle addition. […] Fluorescence was measured for an additional 2 minutes at 1 second intervals after agonist addition. A final addition of ionomycin (5 μM, final concentration) was made to each well of the FLIPR test plate to establish cell viability and maximum fluorescence of dye-bound cytosolic calcium. […]

human P2X2/3 receptor = target: T2, human P2X2/3 receptor (Homo sapiens, UniProt P56373+Q9UBL9); test: P2X2/3 FLIPR (Fluorometric Imaging Plate Reader) assay, CHO-K1 cells; assay type: cell-based; settings: CHO-K1 cells transfected with human P2X2/3; agonist α,β-meATP 5 μM; Fluo-3 calcium fluorescence; read-out: pIC50 for the P2X2/3 receptor (converted)
T2 construct: expressed in transfected cells; host or cells: CHO-K1
T2 sequence (Q9UBL9 1-471): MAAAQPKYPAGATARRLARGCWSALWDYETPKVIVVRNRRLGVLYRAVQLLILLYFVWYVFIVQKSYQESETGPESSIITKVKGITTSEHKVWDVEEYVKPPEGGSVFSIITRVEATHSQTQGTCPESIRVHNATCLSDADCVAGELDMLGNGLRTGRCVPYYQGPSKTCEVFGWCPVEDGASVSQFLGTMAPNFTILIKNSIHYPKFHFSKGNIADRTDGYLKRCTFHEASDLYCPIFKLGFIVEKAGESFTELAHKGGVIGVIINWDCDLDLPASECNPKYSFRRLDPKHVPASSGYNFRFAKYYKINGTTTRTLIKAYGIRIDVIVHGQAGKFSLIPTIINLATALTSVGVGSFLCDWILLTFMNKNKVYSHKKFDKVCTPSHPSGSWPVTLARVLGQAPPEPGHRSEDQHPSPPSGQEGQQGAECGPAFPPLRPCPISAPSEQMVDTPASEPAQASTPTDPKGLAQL
T2 sequence (P56373 1-397): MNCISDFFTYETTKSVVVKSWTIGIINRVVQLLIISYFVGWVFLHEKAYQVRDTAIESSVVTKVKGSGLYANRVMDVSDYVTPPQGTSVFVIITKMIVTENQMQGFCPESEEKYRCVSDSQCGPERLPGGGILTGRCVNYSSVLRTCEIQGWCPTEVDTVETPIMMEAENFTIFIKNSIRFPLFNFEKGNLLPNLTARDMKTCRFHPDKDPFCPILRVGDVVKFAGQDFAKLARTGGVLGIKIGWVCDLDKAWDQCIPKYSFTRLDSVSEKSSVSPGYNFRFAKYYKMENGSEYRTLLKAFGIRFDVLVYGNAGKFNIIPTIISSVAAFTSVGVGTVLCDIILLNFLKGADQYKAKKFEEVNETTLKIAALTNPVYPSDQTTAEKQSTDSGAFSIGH
Protocol: as §1, §2

Structure (SMILES) | melting point [°C] | IC50 (rat P2X3 receptor) [nM] | IC50 (human P2X2/3 receptor) [nM]
COc1cc(C(C)C)c(Oc2cnc(N)nc2N)cc1C#CC1CC1 [Compound 19, 5-(5-Cyclopropylethynyl-2-isopropyl-4-methoxy-phenoxy)-pyrimidine-2,4-diamine] | 225.5 to 226.8 | – | –
C#Cc1cc(Oc2cnc(N)nc2N)c(C#C)cc1OC [Compound 25, 5-(2,5-Diethynyl-4-methoxy-phenoxy)-pyrimidine-2,4-diamine] | 163.2 to 164.1 | – | –
C#Cc1ccc(I)c(Oc2cnc(N)nc2N)c1 [Compound 27, 5-(5-Ethynyl-2-iodo-phenoxy)-pyrimidine-2,4-diamine] | 156 to 159 | – | –
C#Cc1cc(Oc2cnc(N)nc2N)c(C(C)C)cc1O [4-(2,4-Diamino-pyrimidin-5-yloxy)-2-ethynyl-5-isopropyl-phenol] | – | ~5.75 | ~10.2
